The text below walks through data of patent publication US20230373989A1, “N-PHENYLAMINOCARBONYL PYRIDINO-, PYRIMIDINO AND BENZO-TROPANES AS MODULATORS OF GPR65” (PATHIOS THERAPEUTICS LIMITED, priority 2020, published 2023).

The target in this assay is T1, human recombinant GPR65 (Homo sapiens, UniProt Q8IYL9).
T1 construct: host or cells: 1321N1 human astrocytoma cells (1321N1-hrGPR65)
In words: Human GPR65 cAMP HTRF antagonist assay. The class given is cell-based. From the text:
In one preferred embodiment, the compound prevents the increase in cytoplasmic cAMP levels expected following GPR65 activation at acidic pH. This prevention of cAMP accumulation in turn prevents downstream signalling through ICER, as described above. The “Human GPR65 cyclic adenosine monophosphate (cAMP) Homogeneous Time Resolved Fluorescence (HTRF) antagonist assay”, or simply “cAMP assay”, as described in the accompanying examples, can be used to measure the potency of GPR65 modulators, which is expressed as the concentration of compound required to reduce the increase in cAMP concentration upon GPR65 activation by 50% (i.e. an IC50).
Human GPR65 Cyclic Adenosine Monophosphate (cAMP) Homogeneous Time Resolved Fluorescence (HTRF) Antagonist Assay Procedure
IC50 data was obtained by the following procedure:
1321N1 human astrocytoma cells stably expressing human recombinant GPR65 (1321N1-hrGPR65 cells, EuroscreenFast) were cultured according to the vendor's instructions.
Compounds were tested for their ability to antagonise GPR65, through measuring the concentration of cytoplasmic cAMP following treatment of the cells at a pH of 7.2 to activate GPR65 signalling and addition of the compound to be tested. The extent to which the expected rise in cAMP concentration upon GPR65 activation was suppressed by the added compound is indicative of its potency. The assay was carried out according to EuroscreenFast assay methodology as follows.
On the day of the assay, test compounds were added to 384-well, low volume, white microtiter plates by acoustic dispensing. KRH buffer (5 mM KCl, 1.25 mM MgSO4, 124 mM NaCl, 25 mM HEPES, 13.3 mM Glucose, 1.25 mM KH2PO4 and 1.45 mM CaCl2) was adjusted to pH 6.5, pH 7.6 and pH 8.4 by adding NaOH. 1321N1-hGPR65 cells were rapidly thawed and diluted in KRH, pH 7.6 prior to centrifugation at 300×g for 5 min and resuspension in assay buffer (KRH, pH 7.6, supplemented with 1 mM 3-isobutyl-1-methylxanthine (IBMX) and 200 μM ethylenediaminetetraacetic acid (EDTA)). Cells were added to assay plates at a density of 2,000 cells per well in a volume of 5 μl. Assay plates were briefly centrifuged at 100×g and then incubated at room temperature for 30 min. Cells were stimulated by the addition of 5 μL KRH, pH 6.5, to achieve an assay pH of 7.2, while control wells received 5 μl KRH, pH 8.4 to achieve an assay pH of 7.9. Assay plates were briefly centrifuged at 100×g and then incubated at room temperature for 30 min.
Accumulation of cAMP was detected by cAMP HTRF kit (Cisbio). d2-labeled cAMP and cryptate-labeled anti-cAMP antibody in Lysis and Detection Buffer (Cisbio) were added to assay plates, and the plates were incubated at room temperature for 1 h. HTRF measurements were performed using a Pherastar FSX instrument. Acceptor and donor emission signals were measured at 665 nm and 620 nm, respectively, and HTRF ratios were calculated as signal665 nm/signal620 nm×104. Data were normalised to high and low control values and fitted with 4-parameter logistic regression to determine hGPR65 IC50 values for the test compounds, which are shown in Table 1.
For orientation: In TR-FRET formats the signal depends on donor and acceptor labels being close together.

Where [1] appears, read: 1321N1-hrGPR65 cells, assay pH 7.2, cAMP HTRF, read-out: hGPR65 IC50 (activity class).

Where two headings read alike, the source gives them in different places. A value given as a limit tells only on which side of the number the result lay.

T1 sequence (Q8IYL9 whole entry): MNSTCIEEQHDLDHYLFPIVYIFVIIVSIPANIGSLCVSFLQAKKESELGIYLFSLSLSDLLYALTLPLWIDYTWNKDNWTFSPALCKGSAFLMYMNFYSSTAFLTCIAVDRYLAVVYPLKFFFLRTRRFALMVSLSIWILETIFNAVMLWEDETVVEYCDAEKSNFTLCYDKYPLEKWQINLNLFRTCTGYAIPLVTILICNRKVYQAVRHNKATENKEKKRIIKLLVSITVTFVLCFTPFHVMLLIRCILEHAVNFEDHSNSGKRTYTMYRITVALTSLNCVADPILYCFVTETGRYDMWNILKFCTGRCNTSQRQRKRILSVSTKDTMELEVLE

`O=C(Nc1ccc(C(F)(F)F)c(Cl)c1)N1C2CCC1c1cnccc1C2` (racemic) [Compound 37, (±)-N-(3-Chloro-4-(trifluoromethyl)phenyl)-6,7,8,9-tetrahydro-5H-6,9-epiminocyclohepta[c]pyridine-10-carboxamide]: under setting [1], the concentration for half-maximal inhibition (IC50) is 0.5 to 5 µM. For the molecule `O=C(Nc1ccc(C(F)(F)F)c(Cl)c1)N1C2CCC1c1cnc(F)nc1C2` (racemic) [Compound 45, (±)-N-(3-Chloro-4-(trifluoromethyl)phenyl)-2-fluoro-6,7,8,9-tetrahydro-5H-5,8-epiminocyclohepta[d]pyrimidine-10-carboxamide], the IC50 was less than 0.5 µM. As to `O=C(Nc1ccc(Cl)c(Cl)c1)N1C2CCC1c1cnc(F)nc1C2` (racemic) [Compound 46, (±)-N-(3,4-Dichlorophenyl)-2-fluoro-6,7,8,9-tetrahydro-5H-5,8-epiminocyclohepta[d]pyrimidine-10-carboxamide], the 50% inhibitory concentration (IC50) was less than 0.5 µM.

Take `O=C(Nc1ccc(C(F)(F)F)c(Cl)c1)N1C2CCC1c1c[nH]c(=O)nc1C2=NO` (racemic) [Compound 47, (±)-N-(3-Chloro-4-(trifluoromethyl)phenyl)-9-(hydroxyimino)-2-oxo-3,5,6,7,8,9-hexahydro-2H-5,8-epiminocyclohepta[d]pyrimidine-10-carboxamide]: under setting [1], the IC50 fell in the range of 0.5 to 5 µM.

For the molecule `O=C(Nc1ccc(Cl)c(Cl)c1)N1C2CCC1c1cncnc1C2` (racemic) [Compound 48, (±)-N-(3,4-dichlorophenyl)-6,7,8,9-tetrahydro-5H-5,8-epiminocyclohepta[d]pyrimidine-10-carboxamide], the IC50 is less than 0.5 µM. Take `O=C(Nc1ccc(Cl)cc1)N1C2CCC1c1cncnc1C2` (racemic) [Compound 49, (±)-N-(4-Chlorophenyl)-6,7,8,9-tetrahydro-5H-5,8-epiminocyclohepta[d]pyrimidine-10-carboxamide]: the IC50 under setting [1] is greater than 5 µM. Same read-out and setting: the value for `O=C(Nc1cccc(Cl)c1)N1C2CCC1c1cncnc1C2` (racemic) [Compound 50, (±)-N-(3-Chlorophenyl)-6,7,8,9-tetrahydro-5H-5,8-epiminocyclohepta[d]pyrimidine-10-carboxamide] was greater than 5 µM; that for `O=C(Nc1cc(Cl)ccc1F)N1C2CCC1c1cncnc1C2` (racemic) [Compound 51, (±)-N-(5-Chloro-2-fluorophenyl)-6,7,8,9-tetrahydro-5H-5,8-epiminocyclohepta[d]pyrimidine-10-carboxamide] was 0.5 to 5 µM. On the same count and under the same terms, the value for `O=C(Nc1ccc(C(F)(F)F)c(Cl)c1)N1C2CCC1c1ccccc1C2` (racemic) [Compound 54, (±)-N-(3-Chloro-4-(trifluoromethyl)phenyl)-6,7,8,9-tetrahydro-5H-5,8-epiminobenzo[7]annulene-10-carboxamide] was 0.5 to 5 µM. Still for that read-out and setting: to `O=C(Nc1ccc(Cl)c(C(F)(F)F)c1)N1C2CCC1c1ccccc1C2` (racemic) [Compound 55, (±)-N-(4-Chloro-3-(trifluoromethyl)phenyl)-6,7,8,9-tetrahydro-5H-5,8-epiminobenzo[7]annulene-10-carboxamide] belongs 0.5 to 5 µM.

In the case of `COc1ccc2c(c1)CC1CCC2N1C(=O)Nc1ccc(Cl)c(Cl)c1` (racemic) [Compound 56, (±)-N-(3,4-Dichlorophenyl)-2-methoxy-6,7,8,9-tetrahydro-5H-5,8-epiminobenzo[7]annulene-10-carboxamide], the IC50 under setting [1] lay within 0.5 to 5 µM.

In the case of `O=C(Nc1ccc(Cl)c(Cl)c1)N1C2CCC1c1ccc(O)cc1C2` (racemic) [Compound 57, (±)-N-(3,4-Dichlorophenyl)-2-hydroxy-6,7,8,9-tetrahydro-5H-5,8-epiminobenzo[7]annulene-10-carboxamide], the IC50 under setting [1] lay within 0.5 to 5 µM. For `O=C(Nc1ccc(Cl)c(Cl)c1)N1C2CCC1c1cc[n+]([O-])cc1C2` (racemic) [Compound 58, (±)-10-((3,4-Dichlorophenyl)carbamoyl)-6,7,8,9-tetrahydro-5H-5,8-epiminocyclohepta[c]pyridine 2-oxide], the half-inhibitory concentration (IC50) was less than 0.5 µM.

Take `O=C(Nc1ccc(Cl)c(Cl)c1)N1C2CCC1c1c[n+]([O-])ccc1C2` (racemic) [Compound 59, (±)-10-((3,4-Dichlorophenyl)carbamoyl)-6,7,8,9-tetrahydro-5H-6,9-epiminocyclohepta[c]pyridine 2-oxide]: the IC50 under setting [1] was greater than 5 µM. As for `O=C(Nc1ccc(Cl)c(Cl)c1)N1C2CCC1c1ccc(Cl)cc1C2` (racemic) [Compound 60, (±)-2-Chloro-N-(3,4-dichlorophenyl)-6,7,8,9-tetrahydro-5H-5,8-epiminobenzo[7]annulene-10-carboxamide], the IC50 was less than 0.5 µM. As to `Nc1nccc2c1C1CCC(C2)N1C(=O)Nc1ccc(Cl)c(Cl)c1` (racemic) [Compound 61, (±)-1-Amino-N-(3,4-dichlorophenyl)-6,7,8,9-tetrahydro-5H-6,9-epiminocyclohepta[c]pyridine-10-carboxamide], under setting [1], the concentration for half-maximal inhibition (IC50) was in the range of 0.5 to 5 µM. Still for that read-out and setting: the value for `Nc1cc2c(cn1)C1CCC(C2)N1C(=O)Nc1ccc(Cl)c(Cl)c1` (racemic) [Compound 62, (±)-3-amino-N-(3,4-dichlorophenyl)-6,7,8,9-tetrahydro-5H-6,9-epiminocyclohepta[c]pyridine-10-carboxamide] was greater than 5 µM.

In the case of `Nc1nccc2c1CC1CCC2N1C(=O)Nc1ccc(Cl)c(Cl)c1` (racemic) [Compound 63, (±)-1-amino-N-(3,4-dichlorophenyl)-6,7,8,9-tetrahydro-5H-5,8-epiminocyclohepta[c]pyridine-10-carboxamide], under setting [1], the 50% inhibitory concentration (IC50) was greater than 5 µM. Still for that read-out and setting: the value for `Nc1cc2c(cn1)CC1CCC2N1C(=O)Nc1ccc(Cl)c(Cl)c1` (racemic) [Compound 64, (±)-3-Amino-N-(3,4-dichlorophenyl)-6,7,8,9-tetrahydro-5H-5,8-epiminocyclohepta[c]pyridine-10-carboxamide] was 0.5 to 5 µM. In the case of `CC(C)(C)Nc1nccc2c1CC1CCC2N1C(=O)Nc1ccc(Cl)c(Cl)c1` (racemic) [Compound 65, (±)-1-(tert-Butylamino)-N-(3,4-dichlorophenyl)-6,7,8,9-tetrahydro-5H-5,8-epiminocyclohepta[c]pyridine-10-carboxamide], under setting [1], the half-inhibitory concentration (IC50) was in the range of 0.5 to 5 µM. On the same count and under the same terms, the value for `CC(C)(C)Nc1cc2c(cn1)CC1CCC2N1C(=O)Nc1ccc(Cl)c(Cl)c1` (racemic) [Compound 66, (±)-3-(tert-Butylamino)-N-(3,4-dichlorophenyl)-6,7,8,9-tetrahydro-5H-5,8-epiminocyclohepta[c]pyridine-10-carboxamide] was 0.5 to 5 µM. Take `O=C(Nc1ccc(Cl)c(Cl)c1)N1C2CCC1c1cnc(F)cc1C2` (racemic) [Compound 67, (±)-N-(3,4-Dichlorophenyl)-3-fluoro-6,7,8,9-tetrahydro-5H-6,9-epiminocyclohepta[c]pyridine-10-carboxamide]: the IC50 lay within 0.5 to 5 µM.

In the case of `O=C(Nc1ccc(Cl)c(Cl)c1)N1C2CCC1c1c(ccnc1F)C2` (racemic) [Compound 68, (±)-N-(3,4-Dichlorophenyl)-1-fluoro-6,7,8,9-tetrahydro-5H-6,9-epiminocyclohepta[c]pyridine-10-carboxamide], the IC50 under setting [1] lay in the range of 0.5 to 5 µM. With `O=C(Nc1ccc(Cl)c(Cl)c1)N1C2CCC1c1cc(F)ncc1C2` (racemic) [Compound 69, (±)-N-(3,4-Dichlorophenyl)-3-fluoro-6,7,8,9-tetrahydro-5H-5,8-epiminocyclohepta[c]pyridine-10-carboxamide], the half-maximal inhibitory concentration (IC50) under setting [1] is 0.5 to 5 µM. With `O=C(Nc1ccc(C(F)(F)F)c(Cl)c1)N1C2CCC1c1ccc(Cl)cc1C2` (racemic) [Compound 71, (±)-2-Chloro-N-(3-chloro-4-(trifluoromethyl)phenyl)-6,7,8,9-tetrahydro-5H-5,8-epiminobenzo[7]annulene-10-carboxamide], under setting [1], the 50% inhibitory concentration (IC50) lay within 0.5 to 5 µM.

Regarding `N#Cc1ccc2c(c1)CC1CCC2N1C(=O)Nc1ccc(Cl)c(Cl)c1` (racemic) [Compound 72, (±)-2-Cyano-N-(3,4-dichlorophenyl)-6,7,8,9-tetrahydro-5H-5,8-epiminobenzo[7]annulene-10-carboxamide], the IC50 under setting [1] lay in the range of 0.5 to 5 µM.

As usually defined, the IC50 is the point on the concentration scale where inhibition reaches its midpoint.
